Consider three molecules from patent publication EP2020447A1, “Method for identifying compounds modulating adiponectin gene expression” (priority 2007, dated 2009).

For series [1], the system named is human adiponectin gene promoter. Nature of the series: Luciferase reporter screening assay in C2C12 cells stably expressing the adiponectin promoter construct. The class given is cell-based. The note with it: for concentration at which the greatest transactivation of the target promoter was obtained (maximum activity): stable C2C12 adiponectin promoter-luciferase line, commercial activator (positive control), luciferase read 48 hours after stimulation. The procedure: To determine the luciferase activity, between 50000 and […] cells were seeded in each well and in a P24 plate in duplicate. After approximately 24 hours, the medium was removed from the cells and each well was washed with PBS 1x (because DMEM interferes in the measurement of the reporter gene activity). 100 µl of luciferase developing agent (Bright-GloTM Luciferase Assay system- Promega) were then added to each well. This reagent carries the reporter gene substrate and luminescence is generated as a product of the enzymatic reaction. […] To record the measurement of luciferase activity, the plate was shaken for 30 seconds right after adding the developing reagent and after 2 minutes, the volume was collected and transferred to a 96-well plate (P96), which was read in an illuminometer using the program with a duration of 5 seconds and the arbitrary luminescence units were recorded for each obtained clone or, in other words, for each stable cell line.
For the screening, 30000 cells per well were seeded in white P96 plates because these plates allow amplifying the luminescence signal and improving the reading. The cells were grown in 100 µl of hygromycin-free medium.
The cells were stimulated with the extracts 24 hours after the seeding in the following conditions: • cells to which only complete medium had been added (baseline transcription), • cells to which medium had been added in which the extracts to be assayed are dissolved (vehicle), • cells to which a known commercial activator of the target promoter had been added, thus having a positive control of the transcriptional activation and of the screening protocol and which are useful as a reference when screening those positive extracts increasing the activity of the promoters to be studied, because they provide an activation ratio which is calculated as follows: by dividing the average luminescence signal increase in the presence of the commercial activator by the average luminescence signal provided by the baseline activity of the target promoter in the presence of the vehicle. […]
The luciferase activity directed by the target promoters was developed 48 hours after the stimulation with the extracts, according to the protocol described in example 4, but modified such that once the medium was removed from the cells and they were washed with PBS 1x, 40 µl of luciferase developing reagent were added to each well and the plate was read after 2 minutes.
Luminescence values measured in RLUs (Relative Luciferase Units) obtained in the presence of each of the marine extracts which have been assayed were then plotted against the average luminescence signal obtained in baseline conditions (in the presence of the vehicle). […]
For orientation: A reporter such as luciferase makes a cellular process visible.

A further series relates to C2C12 cells. Briefly: Toxicity of the commercial activators for the cells in the screening assay. The class given is cell-based, Mus musculus.

Molecules are shown by their SMILES.

Turning to `CN(CCOc1ccc(CC2SC(=O)NC2=O)cc1)c1ccccn1` (centres unmarked) [rosiglitazone], in series [1], the “concentration at which the greatest transactivation of the target promoter was obtained (maximum activity)” value (from here on “concentration”) is reported as 20 µM.
As to `O=c1c(-c2ccc(O)cc2)coc2cc(O)ccc12` [daidzein], the “potency in the screening assays (comparison in words)” value in series [1] (comparison of commercial activators of the adiponectin promoter) was “more potent than RGZ”. Also, the “concentration” value in series [1] worked out at 20 µM. The “toxicity for the cells (comparison in words)” value with C2C12 cells is reported as “less toxic for the cells than Genistein”.
For the molecule `O=c1c(-c2ccc(O)cc2)coc2cc(O)cc(O)c12` [genistein], the “concentration” value in series [1] is on record as 20 µM.
